Legend:
mice [1] = test: Timed ivPTZ seizure threshold test; assay type: in vivo, mouse
From the text: The timed ivPTZ test was employed to evaluate the acute effect of compound 14 on the seizure thresholds for (1) the first myoclonic twitch, (2) generalized clonic seizure with the loss of the righting reflex, and (3) forelimb tonus. The experimental procedure has been described in detail elsewhere.
(§1) In this study, we used adult male Swiss albino mice (Kołacz, Laboratory Animals Breeding, Warszawa, Poland) license no. 106/2019 (Local Ethical Committee in Lublin). In studies assessing the acute effect of compound 14 on neuromuscular strength, body temperature, and seizure threshold, compound 14 was suspended in a 1% solution of Tween 80 and administered i.p., 30 min before the tests.
(§2) The timed ivPTZ test was employed to evaluate the acute effect of compound 14 on the seizure thresholds for (1) the first myoclonic twitch, (2) generalized clonic seizure with loss of righting reflex, and (3) forelimb tonus. The experimental procedure was described in detail elsewhere. The changes in temperature were recorded using an electronic thermometer (ThermoWorks, Alpine, UT, USA). Mice were gently restrained and a rectal probe was inserted to a depth of ~2 cm into the rectum.
Figure 2 Acute effect of compound 14 on the threshold for the first myoclonic twitch (panel (A)), generalized clonus (panel (B)), and forelimb tonus (panel (C)) in the ivPTZ seizure threshold test in mice. Compound 14 was administered i.p. 30 min before the seizure test. Control animals received vehicle only. Each experimental group consisted of 9–11 animals. Each bar represents the mean (mg/kg PTZ) + S.E.M. * p < 0.05; ** p < 0.01 vs. the control group (one-way ANOVA, followed by Dunnett’s post hoc test, GraphPad Prism 8.0.1).

SH-SY5Y viability (MTS) = assay type: cell-based; conditions: human, neuroblastoma SH-SY5Y cells
[2] = Rectal temperature measurement; assay type: in vivo, mouse; conditions: 30 and 60 mg/kg i.p., 30 min
Protocol: Figure 4 Acute effect of compound 14 on rectal temperature in mice. Compound 14 was administered i.p. 30 min before the seizure test. Control animals received vehicle only. Each experimental group consisted of 10 animals. Each bar represents the mean difference between the pre-injection and post-injection values of rectal temperature in mice (ΔT) + S.E.M. Data were analyzed with one-way ANOVA test (GraphPad Prism 8.0.1).
In this study, we used adult male Swiss albino mice (Kołacz, Laboratory Animals Breeding, Warszawa, Poland) license no. 106/2019 (Local Ethical Committee in Lublin). […]
as §2, with “The experimental procedure was described in detail elsewhere.” left out, “Mice were gently restrained and a rectal probe was inserted to a depth of ~2 cm into the rectum.” left out
The probe remained in the rectum for several second, allowing for temperature stabilization. The temperature was recorded just before injection of compound 14 or vehicle and 30 min later. The difference between the pre- and post-injection temperature value was then calculated (Δ °C).

mice [3] = test: Grip strength test (neuromuscular strength); assay type: in vivo, mouse; conditions: 30 min
Protocol: Figure 3 Acute effect of compound 14 on the neuromuscular strength in mice. Compound 14 was administered i.p. 30 min before the test. Control animals received vehicle only. Each experimental group consisted of 10 animals. Each bar represents the mean + S.E.M. grip strengths in Newtons per gram of mouse body weight (N/g). * p < 0.05 vs. the control group (one-way ANOVA, followed by Dunnett’s post hoc test, GraphPad Prism 8.0.1).
as §1
The acute effect of compound 14 on neuromuscular strength was quantified using the grip-strength apparatus (BIOSEB, Chaville, France) according to the method described elsewhere.

[4] = 30 mg/kg i.p., 30 min before test

CN(C)C1CC(=O)N(C(C(=O)N2CCN(c3cccc(C(F)(F)F)c3)CC2)c2ccccc2)C1=O.Cl (stereo not shown) [Compound 14, 3-(Dimethylamino)-1-(2-oxo-1-phenyl-2-(4-(3-(trifluoromethyl)phenyl)-piperazin-1-yl)ethyl)pyrrolidine-2,5-dione hydrochloride]
effect on threshold for generalized clonus (ivPTZ) (mice [1]; [4]): did not significantly affect | effect on threshold for the first myoclonic twitch (ivPTZ) (mice [1]; [4]): did not significantly affect | effect on threshold for generalized clonic seizure (ivPTZ) (mice [1]; 60 mg/kg i.p., 30 min before test, p < 0.01): slightly increased | effect on threshold for the first myoclonic twitch (ivPTZ) (mice [1]; 60 mg/kg i.p., 30 min before test, p < 0.05): slightly increased | effect on threshold for forelimb tonic extension (ivPTZ) (mice [1]; 30 and 60 mg/kg i.p.): No statistically significant changes | viability at 72 h, 0.001 µM (SH-SY5Y viability (MTS); 0.001 µM, read-out: SH-SY5Y cell viability, % of the control): ≤ 120% | viability at 72 h, 10 µM (SH-SY5Y viability (MTS); 10 µM, read-out: SH-SY5Y cell viability, % of control): 140% | effect on body (rectal) temperature [2]: did not produce statistically significant changes | effect on neuromuscular strength (grip strength) (mice [3]; 30 mg/kg i.p.): did not significantly affect | effect on grip strength (mice [3]; 60 mg/kg i.p., p < 0.05 (Dunnett)): significantly decreased
